Measurements reported in US20250230147A1, “LACTAMS AS CBL-B INHIBITORS” (Genentech, Inc., priority 2021, published 2025).
Where a name gives a salt, the structure may show the parent alone.

Experiments:
[1] = biological target: c-Cbl (Homo sapiens (Human), UniProt P22681); test: C-Cbl LCK Ub TR-FRET assay (c-cbl Lck HTRF); type: biochemical; conditions: for (fold-selectivity): C-cbl Lck HTRF IC50 relative to Cbl-b Lck HTRF IC50
How it was run: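 Detection reagents added, brief spin, 20 min RT. IC50 fit normalized to no-LCK (low) and DMSO (high) controls.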

[2] = biological target: Cbl-b (Homo sapiens (Human), UniProt Q13191); test: Cbl-b LCK Ub TR-FRET assay (Cbl-b Lck HTRF); type: biochemical
Cbl-b, sequence (Q13191 40-426): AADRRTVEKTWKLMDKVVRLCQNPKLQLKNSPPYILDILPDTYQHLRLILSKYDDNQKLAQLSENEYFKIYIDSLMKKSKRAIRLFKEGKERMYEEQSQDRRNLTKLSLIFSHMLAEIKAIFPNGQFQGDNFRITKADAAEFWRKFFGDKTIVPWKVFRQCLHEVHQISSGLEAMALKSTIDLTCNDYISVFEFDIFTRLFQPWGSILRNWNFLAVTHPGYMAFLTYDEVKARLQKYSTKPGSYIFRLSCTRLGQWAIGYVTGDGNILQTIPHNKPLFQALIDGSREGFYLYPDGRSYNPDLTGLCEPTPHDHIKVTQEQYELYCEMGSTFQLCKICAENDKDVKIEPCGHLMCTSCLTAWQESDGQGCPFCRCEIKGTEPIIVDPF
How it was run: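 TR-FRET (340 nm excitation, 615/665 nm emission) read after adding HA-ubiquitin–UBE2D2 thioester, anti-HA-D2 and streptavidin-Eu. Beforehand, compounds incubated 60 min with biotinylated Cbl-b, then 90 min with His-LCK and ATP (1 mM in 2× mix); IC50 from 10 concentrations, DMSO high and no-LCK low controls.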

c-Cbl, sequence (P22681 47-435): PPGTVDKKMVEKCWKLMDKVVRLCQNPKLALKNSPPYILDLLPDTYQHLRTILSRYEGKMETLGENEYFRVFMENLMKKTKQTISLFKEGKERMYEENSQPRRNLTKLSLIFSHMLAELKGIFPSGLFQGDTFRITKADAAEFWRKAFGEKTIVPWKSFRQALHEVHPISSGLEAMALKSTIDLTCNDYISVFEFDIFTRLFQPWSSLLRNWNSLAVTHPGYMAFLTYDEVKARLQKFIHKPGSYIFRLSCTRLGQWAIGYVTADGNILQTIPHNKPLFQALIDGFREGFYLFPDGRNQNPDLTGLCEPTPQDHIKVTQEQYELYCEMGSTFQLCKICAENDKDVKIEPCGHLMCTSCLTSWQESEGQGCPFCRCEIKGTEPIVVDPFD

SMILES	IC50 [1]	(fold-selectivity) [1]	IC50 [2]
CC(C)NCc1cc2c(c(C(F)(F)F)c1)CN(c1cccc(C3([C@@H](F)c4nncn4C)COC3)c1)C2=O [Compound 226, (R)-2-(3-(3-(fluoro(4-methyl-4H-1,2,4-triazol-3-yl)methyl)oxetan-3-yl)phenyl)-6-((isopropylamino)methyl)-4-(trifluoromethyl)isoindolin-1-one formate]	33 nM		29 nM
Cn1cnnc1CC1(c2cccc(N3Cc4c(Cl)cc(CNC5(C)CCC5)cc4C3=O)c2)CC(F)(F)C1 [Compound 252, 4-chloro-2-(3-(3,3-difluoro-1-((4-methyl-4H-1,2,4-triazol-3-yl)-methyl)cyclobutyl)phenyl)-6-(((1-methylcyclobutyl)amino)methyl)isoindolin-1-one formate]	11 nM		13 nM
CC(=O)NCCCCNc1cc(C2(Cc3nncn3C)CCC2)cc(N2Cc3c(cc(CNC4(C)CCC4)cc3C(F)(F)F)C2=O)n1 [Compound 314, N-(4-((4-(1-((4-methyl-4H-1,2,4-triazol-3-yl)methyl)cyclobutyl)-6-(6-(((1-methylcyclobutyl)amino)methyl)-1-oxo-4-(trifluoromethyl)isoindolin-2-yl)pyridin-2-yl)amino)butyl)acetamide formate]	31 nM		27 nM
Cn1cnnc1CC1(c2cc(NC34CCC(C3)C4)nc(N3Cc4c(cccc4C(F)(F)F)C3=O)c2)COC1 [Compound 493, 2-(6-(bicyclo[2.1.1]hexan-1-ylamino)-4-(3-((4-methyl-4H-1,2,4-triazol-3-yl)methyl)oxetan-3-yl)pyridin-2-yl)-4-(trifluoromethyl)isoindolin-1-one]	4500 nM	(6.9x)	630 nM
CC(C)[C@H]1CN(C)CCN1Cc1cc2c(c(C(F)(F)F)c1)CN(c1cccc(C3([C@@H](F)c4nc(F)cn4C)COC3)c1)C2=O [Compound 269, 2-(3-(3-((R)-fluoro(4-fluoro-1-methyl-1H-imidazol-2-yl)methyl)oxetan-3-yl)phenyl)-6-(((S)-2-isopropyl-4-methylpiperazin-1-yl)methyl)-4-(trifluoromethyl)isoindolin-1-one]	470 nM	(2.3x)	210 nM
Cn1cnnc1[C@H](F)C1(c2cccc(N3Cc4c(cc(CN5CC6CC6C5)cc4C(F)(F)F)C3=O)c2)COC1 (stereo partly drawn) [Compound 84, 6-((3-azabicyclo[3.1.0]hexan-3-yl)methyl)-2-(3-(3-((R)-fluoro(4-methyl-4H-1,2,4-triazol-3-yl)methyl)oxetan-3-yl)phenyl)-4-(trifluoromethyl)isoindolin-1-one]	120 nM	1.9x	62 nM
Cn1cnnc1CC1(c2cc(NCC3CCS(=O)(=O)CC3)nc(N3Cc4c(cc(CNC5(C)CCC5)cc4C(F)(F)F)C3=O)c2)CCC1 [Compound 315, 2-(6-(((1,1-dioxidotetrahydro-2H-thiopyran-4-yl)methyl)amino)-4-(1-((4-methyl-4H-1,2,4-triazol-3-yl)methyl)cyclobutyl)pyridin-2-yl)-6-(((1-methylcyclobutyl)amino)methyl)-4-(trifluoromethyl)isoindolin-1-one]	480 nM	(0.84x)	570 nM
Cc1ccn(CC2(c3cccc(N4Cc5c(cc(CN6CCN(C)C[C@@H]6C(C)C)cc5C(F)(F)F)C4=O)c3)COC2)n1 [Compound 264, (S)-6-((2-isopropyl-4-methylpiperazin-1-yl)methyl)-2-(3-(3-((3-methyl-1H-pyrazol-1-yl)methyl)oxetan-3-yl)phenyl)-4-(trifluoromethyl)isoindolin-1-one]	11000 nM	(1.5x)	7100 nM
Cn1cnnc1CC1(c2cc(NC3C4CCC3C4)nc(N3Cc4c(cccc4C(F)(F)F)C3=O)c2)COC1 (centres unmarked) [Compound 382, 2-(6-(bicyclo[2.1.1]hexan-5-ylamino)-4-(3-((4-methyl-4H-1,2,4-triazol-3-yl)methyl)oxetan-3-yl)pyridin-2-yl)-4-(trifluoromethyl)isoindolin-1-one]	20000 nM	(24x)	820 nM
CC(NCc1cc2c(c(C(F)(F)F)c1)CN(c1cccc(C3(Cc4nncn4C)CC(F)(F)C3)c1)C2=O)C1CC1 (centres unmarked) [Compound 319, 6-(((1-cyclopropylethyl)amino)methyl)-2-(3-(3,3-difluoro-1-((4-methyl-4H-1,2,4-triazol-3-yl)methyl)cyclobutyl)phenyl)-4-(trifluoromethyl)isoindolin-1-one formate]	16 nM		14 nM
Cn1cnnc1[C@H](F)[C@](C)(F)c1cccc(N2Cc3c(cc(CN4CC(C)(F)C4)cc3C(F)(F)F)C2=O)c1 [Compound 31, 2-(3-((1 S,2R)-1,2-difluoro-1-(4-methyl-4H-1,2,4-triazol-3-yl)propan-2-yl)phenyl)-6-((3-fluoro-3-methylazetidin-1-yl)methyl)-4-(trifluoromethyl)isoindolin-1-one]	130 nM	1.4x	88 nM
Cn1cnnc1[C@H](F)C1(c2cccc(N3Cc4c(cc(CN5CC6(COC6)C5)cc4C(F)(F)F)C3=O)c2)COC1 [Compound 9, (R)-6-(2-oxa-6-azaspiro[3.3]heptan-6-ylmethyl)-2-(3-(3-(fluoro(4-methyl-4H-1,2,4-triazol-3-yl)methyl)oxetan-3-yl)phenyl)-4-(trifluoromethyl)isoindolin-1-one]	350 nM	2.1x	160 nM
Cn1cnnc1[C@@H](F)C1(c2cccc(N3Cc4c(cc(CN5CCC5)cc4C(F)(F)F)C3=O)c2)COC1 [Compound 71, (S)-6-(azetidin-1-ylmethyl)-2-(3-(3-(fluoro(4-methyl-4H-1,2,4-triazol-3-yl)methyl)oxetan-3-yl)phenyl)-4-(trifluoromethyl)isoindolin-1-one]	400 nM	1.7x	240 nM
CC(C)[C@H]1CN(C)CCN1Cc1cc2c(c(C(F)(F)F)c1)CN(c1cccc(C3([C@H](F)c4nncn4C4CCCCC4)COC3)c1)C2=O [Compound 455, 2-(3-(3-((S)-(4-cyclohexyl-4H-1,2,4-triazol-3-yl)fluoromethyl)oxetan-3-yl)phenyl)-6-(((S)-2-isopropyl-4-methylpiperazin-1-yl)methyl)-4-(trifluoromethyl)isoindolin-1-one]	3100 nM	(0.70x)	4400 nM

More lines, now with the values ahead:

IC50 [1]	(fold-selectivity) [1]	IC50 [2]	SMILES
8.7 nM	(0.70x)	13 nM	CC(C)Nc1cc(N2Cc3c(cc(CNCC4CC4)cc3C(F)(F)F)C2=O)cc(C2(Cc3nncn3C)CCC2)c1 [Compound 459, 6-(((cyclopropylmethyl)amino)methyl)-2-(3-(isopropylamino)-5-(1-((4-methyl-4H-1,2,4-triazol-3-yl)methyl)cyclobutyl)phenyl)-4-(trifluoromethyl)isoindolin-1-one]
11 nM	(1.1x)	96 nM	Cn1cnnc1[C@H](F)C1(c2cccc(N3Cc4c(cc([C@H](N)CC5CC5)cc4C(F)(F)F)C3=O)c2)COC1 [Compound 390, 6-((R)-1-amino-2-cyclopropylethyl)-2-(3-(3-((R)-fluoro(4-methyl-4H-1,2,4-triazol-3-yl)methyl)oxetan-3-yl)phenyl)-4-(trifluoromethyl)isoindolin-1-one]
13 nM	(0.83x)	15 nM	Cc1cnn(CC2(c3cccc(N4Cc5c(cc(CN6CCN(C)C[C@@H]6C(C)C)cc5C(F)(F)F)C4=O)c3)COC2)n1 [Compound 256, (S)-6-((2-isopropyl-4-methylpiperazin-1-yl)methyl)-2-(3-(3-((4-methyl-2H-1,2,3-triazol-2-yl)methyl)oxetan-3-yl)phenyl)-4-(trifluoromethyl)isoindolin-1-one]
10 nM	(0.74x)	14 nM	CC(C)[C@@H]1CN(Cc2cc3c(c(C(F)(F)F)c2)CN(c2cccc(C4(Cc5nncn5C)CC(F)(F)C4)c2)C3=O)CCN1 [Compound 428, (R)-2-(3-(3,3-difluoro-1-((4-methyl-4H-1,2,4-triazol-3-yl)methyl)cyclobutyl)phenyl)-6-((3-isopropylpiperazin-1-yl)methyl)-4-(trifluoromethyl)isoindolin-1-one]
9.3 nM	(0.77x)	12 nM	Cn1cnnc1CC1(c2cccc(N3Cc4c(cc(CNC5(C)CCC5)cc4C(F)F)C3=O)c2)CC(F)(F)C1 [Compound 250, 2-(3-(3,3-difluoro-1-((4-methyl-4H-1,2,4-triazol-3-yl)methyl)cyclo-butyl)phenyl)-4-(difluoromethyl)-6-(((1-methylcyclobutyl)amino)methyl)isoindolin-1-one]
13 nM	(0.83x)	15 nM	Cn1cnnc1CC1(c2cc(C3CC3)cc(N3Cc4c(cc(CNC5(C)CCC5)cc4C(F)(F)F)C3=O)c2)COC1 [Compound 472, 2-(3-cyclopropyl-5-(3-((4-methyl-4H-1,2,4-triazol-3-yl)methyl)oxetan-3-yl)phenyl)-6-(((1-methylcyclobutyl)amino)methyl)-4-(trifluoromethyl)isoindolin-1-one]
52 nM	1.1x	48 nM	C[C@@H]1CN(Cc2cc3c(c(C(F)(F)F)c2)CN(c2cccc(C4([C@@H](F)c5nncn5C)COC4)c2)C3=O)CCCO1 [Compound 119, 2-(3-(3((R)-fluoro(4-methyl-4H-1,2,4-triazol-3-yl)methyl)oxetan-3-yl)phenyl)-6-(((R)-2-methyl-1,4-oxazepan-4-yl)methyl)-4-(trifluoromethyl)isoindolin-1-one]
